Where two headings read alike, the source gives them in different places.
Biological target: T1, BRD9 (Homo sapiens, UniProt Q9H8M2)
T1 sequence (Q9H8M2 1-597): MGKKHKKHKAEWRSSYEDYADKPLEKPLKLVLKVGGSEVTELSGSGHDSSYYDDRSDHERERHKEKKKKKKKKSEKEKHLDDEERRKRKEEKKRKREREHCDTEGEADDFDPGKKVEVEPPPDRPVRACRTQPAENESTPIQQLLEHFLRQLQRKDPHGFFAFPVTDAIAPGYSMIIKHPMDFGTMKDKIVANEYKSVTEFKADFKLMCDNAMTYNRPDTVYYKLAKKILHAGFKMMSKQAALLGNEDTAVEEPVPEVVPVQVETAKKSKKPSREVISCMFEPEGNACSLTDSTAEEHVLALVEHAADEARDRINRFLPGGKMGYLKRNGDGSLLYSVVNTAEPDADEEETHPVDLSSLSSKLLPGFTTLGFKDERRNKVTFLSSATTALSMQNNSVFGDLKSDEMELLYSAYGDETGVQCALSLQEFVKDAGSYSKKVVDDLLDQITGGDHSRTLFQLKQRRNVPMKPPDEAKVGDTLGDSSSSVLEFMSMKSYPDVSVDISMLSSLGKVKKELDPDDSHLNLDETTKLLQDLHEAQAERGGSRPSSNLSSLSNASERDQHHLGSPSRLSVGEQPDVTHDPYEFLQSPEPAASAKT
Assay: BRD9 degradation, HiBiT-BRD9 KI HEK293 (LgBiT) cells, NanoGlo Lytic Endpoint assay (Assay Protocol 1)
Assay type: cell-based
Conditions: BRD9 degradation; for Dmax at 1 µM: 1 μM compound at 6 h of treatment, read-out: Assay 1 Dmax
Description: HiBiT-BRD9 KI HEK293 (LgBiT) Cells (Promega CS3023412) were seeded at 8000 cells per well (38 μL) in sterile white bottom 384 well plates (Invitrogen 164610 or Greiner 781080) and incubated overnight at 37° C. with 5% CO2. The next day, compounds were prepared at 1000× final concentration in DMSO and diluted 1:100 in media (DMEM PAN Biotech P04-03550+10% FBS ATCC 302025). 4 μL compound was added to each well of the cell plate and incubated for 6 h at 37° C. with 5% CO2 BRD9 expression was quantified using the NanoGlo Lytic Endpoint assay (Promega N3050). The lytic buffer was equilibrated to room temperature for 10-15 min before lytic reagent was prepared by adding substrate (1:50) and LgBit protein (1:100) in lytic buffer. 40 μL lytic reagent mix was added to each well of the cel plate and plates were centrifuged briefly at ˜50g. Plates were incubated with shaking (350 RPM) for 12-24 min before reading using the LUM plus module of a BMG Pherastar FSX. Data was analysed using Dotmatics software and % BRD9 remaining was calculated by normalisation to average data from high and low control wells (DMSO treated cels and no cells respectively).

[1] = HEK293, Table 2, Assay Protocol 1
[2] = Table 2, Assay Protocol 1, 6 h of treatment, read-out: Assay 1 DC50

SMILES | Dmax at 1 µM [1] [%] | DC50 [2] [nM] | DC50 (Assay protocol 1, read-out: DC50) [nM] | Dmax (HEK293, Assay protocol 1, read-out: Dmax) [%]
COc1cc(-c2cn(C)c(=O)c(C)c2C)cc(OC)c1CN1CC2CCC(C1)N2Cc1cccc2c1CCN(C(=O)/C(C#N)=C/c1cccc(Br)n1)C2C (mixture of isomers) [Compound B8, (E/Z)-3-(6-bromopyridin-2-yl)-2-(5-((3-(2,6-dimethoxy-4-(1,4,5-trimethyl-6-oxo-1,6-dihydropyridin-3-yl)benzyl)-3,8-diazabicyclo[3.2.1]octan-8-yl)methyl)-1-methyl-1,2,3,4-tetrahydroisoquinoline-2-carbonyl)acrylonitrile] |  |  | 1.25 to 10 | 40 to 70
COc1cc(-c2cn(C)c(=O)c3cnccc23)cc(OC)c1CN1CCN(Cc2cccc3c2CCN(C(=O)/C(C#N)=C\c2nc(C)cs2)C3C)CC1 (mixture of isomers) [Compound A9, (E/Z)-2-(5-((4-(2,6-dimethoxy-4-(2-methyl-1-oxo-1,2-dihydro-2,7-naphthyridin-4-yl)benzyl)piperazin-1-yl)methyl)-1-methyl-1,2,3,4-tetrahydroisoquinoline-2-carbonyl)-3-(4-methylthiazol-2-yl)acrylonitrile] | 40 to 70 | < 1.25 |  | 
COc1cc(-c2cn(C)c(=O)c3cnccc23)cc(OC)c1CN1CCN(C(=O)c2ccc(C3CCCN3C(=O)/C(C#N)=C/c3nccs3)cc2)CC1 (mixture of isomers) [Compound A34, (E/Z)-2-(2-(4-(4-(2,6-dimethoxy-4-(2-methyl-1-oxo-1,2-dihydro-2,7-naphthyridin-4-yl)benzyl)piperazine-1-carbonyl)phenyl)pyrrolidine-1-carbonyl)-3-(thiazol-2-yl)acrylonitrile] | 40 to 70 | 1.25 to 10 |  | 
COc1cc(-c2cn(C)c(=O)c(C)c2C)cc(OC)c1CN1CCN(C(=O)CCc2ccc3c(c2)C(C)N(C(=O)/C(C#N)=C/c2nccs2)CC3)CC1 (mixture of isomers) [Compound A55, (E/Z)-2-(7(3-(4-(2,6-dimethoxy-4-(1,4,5-trimethyl-6-oxo-1,6-dihydropyridin-3-yl)benzyl)piperazin-1-yl)-3-oxopropyl)-1-methyl-1,2,3,4-tetrahydroisoquinoline-2-carbonyl)-3-(thiazol-2-yl)acrylonitrile] | 40 to 70 | 10 to 25 |  | 
COc1cc(-c2cn(C)c(=O)c(C)c2C)cc(OC)c1CN1CCN(Cc2cccc(C3CCCN3C(=O)/C(C#N)=C/c3cccc(Br)n3)c2)CC1 (mixture of isomers) [Compound A63, (E/Z)-3-(6-bromopyridin-2-yl)-2-(2-(3-((4-(2,6-dimethoxy-4-(1,4,5-trimethyl-6-oxo-1,6-dihydropyridin-3-yl)benzyl)piperazin-1-yl)methyl)phenyl)pyrrolidine-1-carbonyl) acrylonitrile] | > 75 | 1.25 to 10 |  | 
COc1cc(-c2cn(C)c(=O)c3cnccc23)cc(OC)c1CN1CCN(Cc2cccc3c2CCN(C(=O)/C(C#N)=C\c2nc(C)c(C)s2)C3C)CC1 (mixture of isomers) [Compound A13, (E/Z)-2-(5-((4-(2,6-dimethoxy-4-(2-methyl-1-oxo-1,2-dihydro-2,7-naphthyridin-4-yl)benzyl)piperazin-1-yl)methyl)-1-methyl-1,2,3,4-tetrahydroisoquinoline-2-carbonyl)-3-(4,5-dimethylthiazol-2-yl)acrylonitrile] | 40 to 70 | 1.25 to 10 |  | 
COc1cc(-c2cn(C)c(=O)c3cnccc23)cc(OC)c1CN1CCN(Cc2cccc(C3CCCN3C(=O)/C(C#N)=C/c3nccs3)c2)CC1 (mixture of isomers) [Compound A33, (E/Z)-2-(2-(3-((4-(2,6-dimethoxy-4-(2-methyl-1-oxo-1,2-dihydro-2,7-naphthyridin-4-yl)benzyl)piperazin-1-yl)methyl)phenyl)pyrrolidine-1-carbonyl)-3(thiazol-2-yl)acrylonitrile] | > 75 | < 1.25 |  | 
COc1cc(-c2cn(C)c(=O)c3cnccc23)cc(OC)c1CN1CCN(Cc2cccc3c2CCN(C(=O)/C(C#N)=C/c2nc4ccccc4s2)C3C)CC1 (mixture of isomers) [Compound A6] | > 75 | < 1.25 |  | 
COc1cc(-c2cn(C)c(=O)c3cnccc23)cc(OC)c1CN1CCN(Cc2cccc3c2CCN(C(=O)/C(C#N)=C/c2cccc(Br)n2)C3C)CC1 (mixture of isomers) [Compound A5, (E/Z)-3-(6-bromopyridin-2-yl)-2-(5-((4-(2,6-dimethoxy-4-(2-methyl-1-oxo-1,2-dihydro-2,7-naphthyridin-4-yl)benzyl)piperazin-1-yl)methyl)-1-methyl-1,2,3,4-tetrahydroisoquinoline-2-carbonyl)acrylonitrile] | 40 to 70 | < 1.25 |  | 

The next lines start with results.

Dmax at 1 µM [1] [%] | DC50 [2] [nM] | SMILES | DC50 (Assay protocol 1, read-out: DC50) [nM] | Dmax (HEK293, Assay protocol 1, read-out: Dmax) [%]
40 to 70 | 1.25 to 10 | COc1cc(-c2cn(C)c(=O)c3cnccc23)cc(OC)c1CN1CCN(Cc2cccc3c2CCN(C(=O)/C(C#N)=C\c2ccon2)C3C)CC1 (mixture of isomers) [Compound A11, (E/Z)-2-(5-((4-(2,6-dimethoxy-4-(2-methyl-1-oxo-1,2-dihydro-2,7-naphthyridin-4-yl)benzyl)piperazin-1-yl)methyl)-1-methyl-1,2,3,4-tetrahydroisoquinoline-2-carbonyl)-3-(isoxazol-3-yl)acrylonitrile] |  | 
40 to 70 | 1.25 to 10 | COc1cc(-c2cn(C)c(=O)c3cnccc23)cc(OC)c1CN1CCN(Cc2cccc3c2CCN(C(=O)/C(C#N)=C/c2c(F)cccc2F)C3C)CC1 (mixture of isomers) [Compound A35, (E/Z)-3-(2,6-difluorophenyl)-2-[5-[[4-[[2,6-dimethoxy-4-(2-methyl-1-oxo-2,7-naphthyridin-4-yl)phenyl]methyl]piperazin-1-yl]methyl]-1-methyl-3,4-dihydro-1H-isoquinoline-2-carbonyl]prop-2-enenitrile] |  | 
40 to 70 | < 1.25 | COc1cc(-c2cn(C)c(=O)c3cnccc23)cc(OC)c1CN1CCN(Cc2cccc3c2CCN(C(=O)/C(C#N)=C\C(C)(C)CF)C3C)CC1 (mixture of isomers) [Compound A18, (E/Z)-2-(5-((4-(2,6-dimethoxy-4-(2-methyl-1-oxo-1,2-dihydro-2,7-naphthyridin-4-yl)benzyl)piperazin-1-yl)methyl)-1-methyl-1,2,3,4-tetrahydroisoquinoline-2-carbonyl)-5-fluoro-4,4-dimethylpent-2-enenitrile] |  | 
40 to 70 | 1.25 to 10 | COc1cc(-c2cn(C)c(=O)c3cnccc23)cc(OC)c1CN1CC2CC1CN2Cc1cccc2c1CCN(C(=O)/C(C#N)=C/C(C)(C)C)C2C (single isomer, unassigned) [Compound A39, (E/Z)-2-(5-((5-(2,6-dimethoxy-4-(2-methyl-1-oxo-1,2-dihydro-2,7-naphthyridin-4-yl)benzyl)-2,5-diazabicyclo[2.2.1]heptan-2-yl)methyl)-1-methyl-1,2,3,4-tetrahydroisoquinoline-2-carbonyl)-4,4-dimethylpent-2-enenitrile] |  | 
40 to 70 | 1.25 to 10 | CCCC(c1ccc(CCC(=O)N2CCN(Cc3c(OC)cc(-c4cn(C)c(=O)c(C)c4C)cc3OC)CC2)cc1)N(C)C(=O)/C(C#N)=C/c1nccs1 (mixture of isomers) [Compound A58, (E/Z)-2-cyano-N-(1-(4-(3-(4-(2,6-dimethoxy-4-(1,4,5-trimethyl-6-oxo-1,6-dihydropyridin-3-yl)benzyl)piperazin-1-yl)-3-oxopropyl)phenyl)butyl)-N-methyl-3-(thiazol-2-yl)acrylamide] |  | 
> 75 | 1.25 to 10 | COc1cc(-c2cn(C)c(=O)c(C)c2C)cc(OC)c1CN1CCN(Cc2cccc3c2CCN(C(=O)/C(C#N)=C/c2nc4ccccc4s2)C3C)CC1 (mixture of isomers) [Compound A20] |  | 
> 75 | 1.25 to 10 | COc1cc(-c2cc(C)c(=O)n(C)c2)cc(OC)c1CN1CCN(Cc2cccc3c2CCN(C(=O)/C(C#N)=C/C(C)C)C3C)CC1 (mixture of isomers) [Compound A52, (E/Z)-2-(5-((4-(4-(1,5-dimethyl-6-oxo-1,6-dihydropyridin-3-yl)-2,6-dimethoxybenzyl)piperazin-1-yl)methyl)-1-methyl-1,2,3,4-tetrahydroisoquinoline-2-carbonyl)-4-methylpent-2-enenitrile] |  | 

Reference: patent US20260092061A1, “COMPOUNDS FOR TARGETED PROTEIN DEGRADATION” (Amphista Therapeutics Limited, priority 2022, published 2026)
